Assays:
solid-tumor patients = conditions: phase 1 studies; cited from earlier work
[1] = Plasma pharmacokinetics of lenvatinib; conditions: human, in vivo
Procedure: Tmax, Cmax, Ctrough, AUC0-t, CL (total body clearance from plasma), Vss (volume of distribution at steady […]), and t1/2 were evaluated.
Baseline and demographic variables including age, gender, race, height, weight, and ECOG performance score were summarized using descriptive statistics. […] Pearson and Spearman correlation coefficients were calculated between pharmacokinetic parameters and serum biomarkers at different time points compared with baseline to examine the correlation between drug exposure and biomarkers. Univariate and multivariate Cox proportional hazards models and log-rank tests were used to examine the relationship between PFS and baseline (and change from baseline) concentrations in angiogenesis and apoptosis biomarkers. Cumulative chi-square test was used to examine the correlation between mutation/serum biomarkers and best overall response. Pearson and Spearman correlation coefficients were also calculated between percent MTS (defined as percent change in sum of longest diameter from baseline to nadir using RECIST criteria) and serum biomarkers at different time points compared with baseline.

metastatic melanoma = conditions: 38 or 120 patients, phase 3 trial, metastatic melanoma progressed after ipilimumab; cited from earlier work

Row | Compound | Maximum tolerated dose (MTD) (solid-tumor patients) | AUC(0-t) ([1]; Geometric mean (%CV), DL1 lenvatinib 20 mg + TMZ 100 mg/m2, Cycle 1/Day 1, n = 6) | AUC(0-t) ([1]; Geometric mean (%CV), DL1 lenvatinib 20 mg + TMZ 100 mg/m2, Cycle 2/Day 1, n = 4) | AUC(0-t) ([1]; Mean (SD), DL3 lenvatinib 24 mg + TMZ 150 mg/m2, Cycle 1/Day 1, n = 22) | AUC(0-t) ([1]; Mean (SD), DL3 lenvatinib 24 mg + TMZ 150 mg/m2, Cycle 2/Day 1, n = 18) | Tmax ([1]; Median tmax, range across the cohorts) | Objective response rate (metastatic melanoma)
1 | COc1cc2nccc(Oc3ccc(NC(=O)NC4CC4)c(Cl)c3)c2cc1C(N)=O [Lenvatinib] | 25 mg/day | 3120 ng·h/mL | 4120 ng·h/mL | 3940 ng·h/mL | 4740 ng·h/mL | 1 to 8 h | –
2 | nivolumab: anti-PD1 receptor immune checkpoint inhibitor monoclonal antibody | – | – | – | – | – | – | 31.7%
